Laboratory results as given in publication PMC6179248, “Peanut-specific T cell responses in patients with different clinical reactivity” (PLoS ONE, 2018).

Legend:
[1] = tested on: PBMC from peanut allergic and non-allergic donors (IL-5 production); experiment: IL-5 ELISPOT with individual peptides after 14-day in vitro expansion (epitope mapping); assay type: cell-based, human; settings: SFC per 10^6 PBMC, individual peptide 10 μg/ml, 24 h, after 14-day culture; for IL-5 Average SFC (controls): non-allergic controls; for IL-5 Average SFC (allergics): allergic donors
Description: (§1) For in vitro expansions, PBMCs were thawed and cultured in RPMI 1640 (Omega Scientific, Tarzana, CA) supplemented with 5% human AB serum (Gemini Bio-Products, West Sacramento, CA) at a density of 2 × 10^6 cells per mL in 24-well plates (Corning, San Diego, CA) and stimulated with peanut extract (10 μg/ml) or peptide pools at 5 μg/mL. Cells were kept at 37°C, 5% CO2, and additional IL-2 (10 U/mL; ThermoFisher, San Diego, CA) was added every 3 days after initial antigenic stimulation. On day 14, cells were harvested and reactivity against peanut extract (10 μg/ml), peanut specific peptide pools (5 μg/ml) and individual peptides (10 μg/ml) was assessed. The production of IL-5 and IFNγ post-stimulation with peanut extract was analyzed in dual ELISPOT assays. Flat-bottom 96-well nitrocellulose plates (Millipore, Bedford, MA) were prepared according to the manufacturer’s instructions and coated with either 10 μg/ml of both anti-human IL-5 (clone TRFK5) and anti-human IFNγ (clone 1-D1K) or anti-human IL-10 (clone 9D7) and anti-human IL-17 (clone MT44.6) (Mabtech, Cincinnati, OH). PBMC were then incubated at a density of 1 × 10^5/well either with peptide pools (5 μg/ml) or individual peptides (10 μg/ml), peanut extract (10 μg/ml), PHA (10 μg/ml), or medium containing 0.25% DMSO (corresponding to the highest percentage of DMSO in the pools/peptides condition) as a control. After 24 h, cells were removed, and plates were incubated with a cocktail containing either biotinylated anti-human IL-5 (1:50 dilution) (clone 5A10) and horseradish peroxidase (HRP)-conjugated anti-human IFNγ (1:200 dilution) (clone 7-B6-1) or biotinylated anti-human IL-17 (1:200 dilution) (clone MT504) anti-human alkaline phosphatase (AP)-conjugated IL-10 (1:200 dilution) (clone 12G8) (Mabtech, Cincinnati, OH) at 37°C. After 2 h, spots corresponding to the biotinylated IL-5 Ab were developed by incubation with Alkaline-phosphatase-Complex (Vector Laboratories, Burlingame, CA) and then visualized by applying the Vector Blue Alkaline Phosphatase Substrate Kit III (Vector Laboratories, Burlingame, CA) according to the manufacturer’s instructions. Spots corresponding to the HRP-conjugated anti-human IFNγ Ab were visualized by incubation with 3-amino-9-ethylcarvazole solution (Sigma-Aldrich, St. Louis, MO). Spots were counted by computer-assisted image analysis (KS-ELISPOT reader, Zeiss, Munich). Each assay was performed in triplicate. The level of statistical significance was determined with a Student t test using the mean of triplicate values of the response against relevant pools or individual peptides versus the response against the DMSO control. Criteria for response positivity were 20 spot-forming cells (SFCs)/10^6 PBMC, p ≤ 0.05, and a stimulation index (SI) ≥ 2. SFCs are measured per 10^5 PBMC, subsequently readings are background subtracted and multiplied by 10 to be expressed as SFC per million PBMC. T cell epitope mapping was performed to determine epitopes from the major peanut allergens Ara h 1, 2 and 3, recognized by peanut allergic (n = 11) and non-allergic (n = 10) donors. As these studies were performed with samples obtained from pediatric patients, available blood sample volumes were limiting. To overcome this limitation, small pools of predicted peptides matched to the HLA molecules expressed in each donor were tested. For each donor, class II binding affinity predictions were performed using algorithms available through the IEDB (www.iedb.org)[18], to identify the top 6 predicted binders for each of the alleles expressed at the four HLA class II loci (DRB1, DRB3/4/5, DQB1, and DPB1). Accordingly, the screening load for each donor was reduced from 400 peptides to a maximum of 48 peptides (6 peptides x ≤8 class II molecules, less for homozygous donors). The six top predicted peptides for each allele were used to generate allele-specific pools, which were in turn used to expand peanut-specific cells in vitro. […]

[2] = tested on: PBMC from peanut allergic and non-allergic donors (IFNγ production); experiment: IFNγ ELISPOT with individual peptides after 14-day in vitro expansion (epitope mapping); assay type: cell-based, human; settings: SFC per 10^6 PBMC, individual peptide 10 μg/ml, 24 h, after 14-day culture; for IFNg Average SFC (controls): non-allergic controls; for IFNg Average SFC (allergics): allergic donors
Description: as §1

Row | Sequence | IL-5 Average SFC (controls) [1] [SFC] | IFNg Average SFC (controls) [2] [SFC] | IL-5 Average SFC (allergics) [1] [SFC] | IFNg Average SFC (allergics) [2] [SFC]
1 | VTVKGGLRILSPDEE [Ara h 3 15-mer, position 276] | 653 | 433 |  | 
2 | LLGILVLASVSATQA [Ara h 1 15-mer, position 11] | 0 | 145 |  | 
3 | FQNLQNHRIVQIEAK [Ara h 1 15-mer, position 206; P19 pool member] | 0 | 0 | 74 | 0
4 | EQGAIVTVKGGLRIL [Ara h 3 15-mer, position 271] | 182 | 220 | 0 | 0
5 | KAMVIVVVNKGTGNL [Ara h 1 15-mer, position 451] | 0 | 28 | 108 | 42
6 | SIIYALRGRAHVQVV [Ara h 3 15-mer, position 421; P19 pool member] | 358 | 249 | 400 | 89
7 | EQGAIVTVRGGLRIL [Ara h 3 15-mer, position 296] | 205 | 252 | 78 | 142
8 | IPSGFISYILNRHDN [Ara h 1 15-mer, position 266] | 180 | 0 | 78 | 0
9 | GHALRIPSGFISYIL [Ara h 1 15-mer, position 261] | 1080 | 0 | 0 | 0
10 | GSNIFSGFAQEFLQH [Ara h 3 15-mer, position 237] | 29 | 0 |  | 
11 | NHRIVQIEARPNTLV [Ara h 1 15-mer, position 211] | 427 | 303 |  | 
12 | SNREVRRYTARLKEG [Ara h 1 15-mer, position 493] | 527 | 108 | 20 | 42
13 | QSENYEYLAFKTDSR [Ara h 3 15-mer, position 441] | 419 | 95 | 0 | 0
14 | LLGILVLASVSATHA [Ara h 1 15-mer, position 11] | 0 | 80 |  | 
15 | SRTVLRRNALRRPFY [Ara h 3 15-mer, position 71] | 647 | 377 |  | 
16 | SRLVLRRNALRRPFY [Ara h 3 15-mer, position 71; P19 pool member] | 941 | 341 | 27 | 19
17 | DVFIMPAAHPVAINA [Ara h 1 15-mer, position 508] | 34 | 0 |  | 
18 | LQDLDMMLTCVEIKE [Ara h 1 15-mer, position 426] | 403 | 158 | 0 | 0

Row | Sequence | IL-5 Average SFC (controls) [1] [SFC] | IFNg Average SFC (controls) [2] [SFC] | IL-5 Average SFC (allergics) [1] [SFC] | IFNg Average SFC (allergics) [2] [SFC]
19 | NNRKSFNLDEGHALR [Ara h 1 15-mer, position 251] | 82 | 55 |  | 
20 | TIVVALNGRAHVQVV [Ara h 3 15-mer, position 396] | 567 | 548 | 148 | 415
21 | AGVALSRLVLRRNAL [Ara h 3 15-mer, position 66] | 753 | 603 |  | 
22 | QEFQCAGVALSRTVL [Ara h 3 15-mer, position 61] | 98 | 34 |  | 
23 | SGFTPEFLAQAFQVD [Ara h 3 15-mer, position 266; P19 pool member] | 240 | 81 | 394 | 0
24 | QAGENSIIDNLPEEV [Ara h 3 15-mer, position 461; P19 pool member] | 33 | 0 | 79 | 61
25 | RRFYLAGNQEQEFLR [Ara h 3 15-mer, position 196] | 750 | 90 | 0 | 0
26 | PHFNSKAMVIVVINK [Ara h 1 15-mer, position 446] | 0 | 58 | 41 | 15
27 | MAKLLALSLCFCVLV [Ara h 3 15-mer, position 1] | 25 | 9 | 0 | 0
28 | LAGENSVIDNLPEEV [Ara h 3 15-mer, position 486; P19 pool member] | 23 | 0 | 306 | 0
29 | SNAPQEIFIQQGRGY [Ara h 3 15-mer, position 86] | 45 | 0 |  | 
30 | GLRILSPDEEDESSR [Ara h 3 15-mer, position 281] | 403 | 293 |  | 
31 | RNNPFYFPSRRFSTR [Ara h 1 15-mer, position 171] |  |  | 100 | 0
32 | EYVAFKTDSRPSIAN [Ara h 3 15-mer, position 471; P19 pool member] | 225 | 539 | 651 | 27
33 | GGNIFSGFTPEFLAQ [Ara h 3 15-mer, position 261] | 141 | 0 | 0 | 62
34 | EYLAFKTDSRPSIAN [Ara h 3 15-mer, position 446; P19 pool member] | 50 | 270 | 307 | 0
35 | HVQVVDSNGNRVYDE [Ara h 3 15-mer, position 406; P19 pool member] | 0 | 240 | 385 | 0
36 | RSSENNEGVIVEVSK [Ara h 1 15-mer, position 356] | 40 | 0 |  | 
